From patent publication US12540129B2, “KIF18A inhibitors” (AMGEN INC., priority 2019, dated 2026)

What follows are compounds tested against T1, Recombinant human KIF18A (1-467 His-tagged) protein (Homo sapiens, UniProt Q8NI77) (assay: KIF18A Enzyme Assay: microtubule-stimulated ATPase activity (ADP-Glo)). Settings: 30 nM KIF18A, 75 μM ATP.
T1 construct: Recombinant human KIF18A (1-467 His-tagged) protein; His; made in house
Format: biochemical
Summary of the method: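 Recombinant human KIF18A (1-467, His-tagged), baculovirus-expressed, assayed for microtubule-stimulated ATPase activity; ADP formed detected by ADP-Glo luminescence. Compounds tested as 22-point 2-fold serial dilutions in DMSO. IC50 from four-parameter logistic fit.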

T1 sequence (Q8NI77 1-467): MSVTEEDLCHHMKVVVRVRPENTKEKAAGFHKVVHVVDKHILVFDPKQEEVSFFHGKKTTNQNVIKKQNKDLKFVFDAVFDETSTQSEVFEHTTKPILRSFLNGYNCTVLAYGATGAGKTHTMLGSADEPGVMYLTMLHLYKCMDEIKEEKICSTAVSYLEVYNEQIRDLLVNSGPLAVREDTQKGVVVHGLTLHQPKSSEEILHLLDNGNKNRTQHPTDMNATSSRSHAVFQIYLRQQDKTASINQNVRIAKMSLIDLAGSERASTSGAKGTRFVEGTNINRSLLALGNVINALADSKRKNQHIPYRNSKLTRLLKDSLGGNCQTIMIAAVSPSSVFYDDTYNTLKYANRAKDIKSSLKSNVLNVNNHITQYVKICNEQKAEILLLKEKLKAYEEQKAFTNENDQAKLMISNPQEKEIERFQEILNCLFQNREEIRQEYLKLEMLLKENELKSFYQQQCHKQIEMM
T1 sequence (P02550 whole entry partner): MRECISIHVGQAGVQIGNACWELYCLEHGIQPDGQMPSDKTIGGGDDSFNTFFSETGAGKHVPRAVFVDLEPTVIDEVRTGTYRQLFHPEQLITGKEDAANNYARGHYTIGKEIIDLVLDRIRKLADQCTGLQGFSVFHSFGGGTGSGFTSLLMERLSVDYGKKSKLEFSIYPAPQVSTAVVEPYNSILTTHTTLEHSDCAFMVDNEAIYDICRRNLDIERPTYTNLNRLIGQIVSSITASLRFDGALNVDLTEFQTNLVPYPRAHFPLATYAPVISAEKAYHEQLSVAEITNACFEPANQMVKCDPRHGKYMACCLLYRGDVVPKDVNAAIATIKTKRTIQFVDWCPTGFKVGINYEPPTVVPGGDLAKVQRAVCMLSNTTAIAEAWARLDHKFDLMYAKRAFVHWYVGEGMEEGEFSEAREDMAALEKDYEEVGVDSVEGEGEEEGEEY
T1 sequence (P02554 whole entry partner): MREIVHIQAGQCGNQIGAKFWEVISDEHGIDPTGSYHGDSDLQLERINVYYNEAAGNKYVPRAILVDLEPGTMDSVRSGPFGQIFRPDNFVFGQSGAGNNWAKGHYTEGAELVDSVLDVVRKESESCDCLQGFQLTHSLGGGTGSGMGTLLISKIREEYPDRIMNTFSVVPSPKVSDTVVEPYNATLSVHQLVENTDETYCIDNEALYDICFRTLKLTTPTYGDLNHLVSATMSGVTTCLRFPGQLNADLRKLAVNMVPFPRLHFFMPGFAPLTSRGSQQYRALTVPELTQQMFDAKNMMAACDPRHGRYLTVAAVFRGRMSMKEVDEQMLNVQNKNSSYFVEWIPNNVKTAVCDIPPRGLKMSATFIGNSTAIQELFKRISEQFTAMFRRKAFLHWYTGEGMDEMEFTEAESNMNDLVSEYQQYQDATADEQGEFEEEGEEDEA

Question: Which IC50 does the source give for `O=C(Nc1cccc(S(=O)(=O)C2CCCC2)c1)c1ccc(NCC2(O)CCC2)nc1N1CCC2(CC1)CC2` [Example 103-17, N-(3-(cyclopentylsulfonyl)phenyl)-6-(((1-hydroxycyclobutyl)methyl)amino)-2-(6-azaspiro[2.5]octan-6-yl)nicotinamide] here?
Answer: 168 nM

Question: How did the IC50 turn out when `CC(C)(O)C(C)(C)Nc1ccc(C(=O)Nc2cccc(S(=O)(=O)C3CCCC3)c2)c(N2CCC3(CC2)CC3)n1` [Example 103-18, N-(3-(cyclopentylsulfonyl)phenyl)-6-((3-hydroxy-2,3-dimethylbutan-2-yl)amino)-2-(6-azaspiro[2.5]octan-6-yl)nicotinamide] was run?
Answer: 109 nM

Question: For `O=C(Nc1cccc(S(=O)(=O)C2CCCC2)c1)c1ccc(NC2(CCO)CC2)nc1N1CCC2(CC1)CC2` [Example 103-19, N-(3-(cyclopentylsulfonyl)phenyl)-6-((1-(2-hydroxyethyl)cyclopropyl)amino)-2-(6-azaspiro[2.5]octan-6-yl)nicotinamide], which IC50 is on record?
Answer: 55 nM

Question: Which IC50 does the source give for `O=C(Nc1cccc(S(=O)(=O)C2CCCC2)c1)c1ccc(N2CC(CO)C2)nc1N1CCC2(CC1)CC2` [Example 103-20, N-(3-(cyclopentylsulfonyl)phenyl)-6-(3-(hydroxymethyl)azetidin-1-yl)-2-(6-azaspiro[2.5]octan-6-yl)nicotinamide] here?
Answer: 141 nM

Question: How did the IC50 turn out when `O=C(Nc1cccc(S(=O)(=O)C2CCCC2)c1)c1ccc(N2CC(O)C2)nc1N1CCC2(CC1)CC2` [Example 103-21, N-(3-(cyclopentylsulfonyl)phenyl)-6-(3-hydroxyazetidin-1-yl)-2-(6-azaspiro[2.5]octan-6-yl)nicotinamide] was run?
Answer: 118 nM

Question: `CN(C)CCNc1ccc(C(=O)Nc2cccc(S(=O)(=O)C3CCCC3)c2)c(N2CCC3(CC2)CC3)n1` [Example 103-22, N-(3-(cyclopentylsulfonyl)phenyl)-6-((2-(dimethylamino)ethyl)amino)-2-(6-azaspiro[2.5]octan-6-yl)nicotinamide] was tested. Which IC50 did it give?
Answer: 678 nM

Question: Which IC50 does the source give for `CCNc1ccc(C(=O)Nc2cccc(S(=O)(=O)C3CCCC3)c2)c(N2CCC3(CCC3)CC2)n1` [Example 103-23, N-(3-(cyclopentylsulfonyl)phenyl)-6-(ethylamino)-2-(7-azaspiro[3.5]nonan-7-yl)nicotinamide] here?
Answer: 97 nM

Question: Which IC50 does the source give for `O=C(Nc1cccc(S(=O)(=O)C2CCCC2)c1)c1ccc(NCCO)nc1N1CCC2(CCC2)CC1` [Example 103-24, N-(3-(cyclopentylsulfonyl)phenyl)-6-((2-hydroxyethyl)amino)-2-(7-azaspiro[3.5]nonan-7-yl)nicotinamide] here?
Answer: 36 nM

Question: With `O=C(Nc1cccc(S(=O)(=O)C2CCCC2)c1)c1ccc(NC2(CO)CC2)nc1N1CCC2(CCC2)CC1` [Example 103-25, N-(3-(cyclopentylsulfonyl)phenyl)-6-((1-(hydroxymethyl)cyclopropyl)amino)-2-(7-azaspiro[3.5]nonan-7-yl)nicotinamide] as the compound, how does the IC50 read?
Answer: 38 nM

Question: Which IC50 does the source give for `O=C(Nc1cccc(S(=O)(=O)C2CCCC2)c1)c1ccc(N2CCC2)nc1N1CCC2(CCC2)CC1` [Example 103-26, 6-(azctidin-1-yl)-N-(3-(cyclopentylsulfonyl)phenyl)-2-(7-azaspiro[3.5]nonan-7-yl)nicotinamide] here?
Answer: 141 nM

Question: With `O=C(Nc1cccc(S(=O)(=O)C2CCCC2)c1)c1ccc(N2CCOCC2)nc1N1CCC2(CCC2)CC1` [Example 103-27, N-(3-(cyclopentylsulfonyl)phenyl)-6-morpholino-2-(7-azaspiro[3.5]nonan-7-yl)nicotinamide] as the compound, how does the IC50 read?
Answer: 688 nM

Question: For `CC(C)(C)NS(=O)(=O)c1cccc(NC(=O)c2ccc(NC(C)(C)CCO)nc2N2CCC3(CC2)CC3)c1` [Example 103-28, N-(3-(N-(tert-butyl)sulfamoyl)phenyl)-6-((4-hydroxy-2-methylbutan-2-yl)amino)-2-(6-azaspiro[2.5]octan-6-yl)nicotinamide], which IC50 is on record?
Answer: 80 nM

Question: `O=C(Nc1cccc(S(=O)(=O)C2CCCC2)c1)c1ccc(OC2COC2)nc1N1CCC2(CC1)CC2` [Example 104, N-(3-(cyclopentylsulfonyl)phenyl)-6-(oxctan-3-yloxy)-2-(6-azaspiro[2.5]octan-6-yl)nicotinamide] was tested. Which IC50 did it give?
Answer: 296 nM

Question: How did the IC50 turn out when `COc1ccc(C(=O)Nc2cccc(S(=O)(=O)C3CCCC3)c2)c(N2CCC3(CC2)CC3)n1` [Example 104-1, N-(3-(cyclopentylsulfonyl)phenyl)-6-methoxy-2-(6-azaspiro[2.5]octan-6-yl)nicotinamide] was run?
Answer: 261 nM

Question: For `CC(C)(CO)Nc1ccc(C(=O)Nc2cccc(S(=O)(=O)C3(C)CCC3)c2)c(N2CCC3(CC2)CC3)n1` [Example 105-1, 6-((1-hydroxy-2-methylpropan-2-yl)amino)-N-(3-((1-methylcyclobutyl)sulfonyl)phenyl)-2-(6-azaspiro[2.5]octan-6-yl)nicotinamide], which IC50 is on record?
Answer: 77 nM

Question: `CC(C)(CO)Nc1ccc(C(=O)Nc2cccc(S(=O)(=O)C(C)(C)C)c2)c(N2CCC3(CC2)CC3)n1` [Example 105-2, N-(3-(tert-butylsulfonyl)phenyl)-6-((1-hydroxy-2-methylpropan-2-yl)amino)-2-(6-azaspiro[2.5]octan-6-yl)nicotinamide] was tested. Which IC50 did it give?
Answer: 80 nM

Question: Which IC50 does the source give for `CC(C)(CO)Nc1ccc(C(=O)Nc2cccc(S(=O)(=O)C(C)(C)C(F)(F)F)c2)c(N2CCC3(CC2)CC3)n1` [Example 105-3, 6-((1-hydroxy-2-methylpropan-2-yl)amino)-2-(6-azaspiro[2.5]octan-6-yl)-N-(3-((1,1,1-trifluoro-2-methylpropan-2-yl)sulfonyl)phenyl)nicotinamide] here?
Answer: 208 nM

Question: Which IC50 does the source give for `CC(C)CS(=O)(=O)c1cccc(NC(=O)c2ccc(NC(C)(C)CO)nc2N2CCC3(CC2)CC3)c1` [Example 105-4, 6-((1-hydroxy-2-methylpropan-2-yl)amino)-N-(3-(isobutylsulfonyl)phenyl)-2-(6-azaspiro[2.5]octan-6-yl)nicotinamide] here?
Answer: 42 nM

Question: For `CC(C)(CO)Nc1ccc(C(=O)Nc2cccc(S(=O)(=O)C(F)(F)F)c2)c(N2CCC3(CC2)CC3)n1` [Example 105-5, 6-((1-hydroxy-2-methylpropan-2-yl)amino)-2-(6-azaspiro[2.5]octan-6-yl)-N-(3-((trifluoromethyl)sulfonyl)phenyl)nicotinamide], which IC50 is on record?
Answer: 186 nM

Question: `CC(C)(CO)Nc1ccc(C(=O)Nc2cccc(S(=O)(=O)C3CCC3)c2)c(N2CCC3(CC2)CC3)n1` [Example 105-6, N-(3-(cyclobutylsulfonyl)phenyl)-6-((1-hydroxy-2-methylpropan-2-yl)amino)-2-(6-azaspiro[2.5]octan-6-yl)nicotinamide] was tested. Which IC50 did it give?
Answer: 28 nM

Question: Which IC50 does the source give for `Cc1ccc(NC(=O)c2ccc(NC(C)(C)CO)nc2N2CCC3(CC2)CC3)cc1S(=O)(=O)C1CCCC1` [Example 105-8, N-(3-(cyclopentylsulfonyl)-4-methylphenyl)-6-((1-hydroxy-2-methylpropan-2-yl)amino)-2-(6-azaspiro[2.5]octan-6-yl)nicotinamide] here?
Answer: 55 nM

Question: With `Cc1ccc(NC(=O)c2ccc(NC(C)(C)CO)nc2N2CCC3(CCC3)CC2)cc1S(=O)(=O)C1CCCC1` [Example 105-9, N-(3-(cyclopentylsulfonyl)-4-methylphenyl)-6-((1-hydroxy-2-methylpropan-2-yl)amino)-2-(7-azaspiro[3.5]nonan-7-yl)nicotinamide] as the compound, how does the IC50 read?
Answer: 68 nM

Question: `Cc1ccc(NC(=O)c2ccc(NC3(CO)CC3)nc2N2CCC3(CC2)CC3)cc1S(=O)(=O)C1CCCC1` [Example 105-10, N-(3-(cyclopentylsulfonyl)-4-methylphenyl)-6-((1-(hydroxymethyl)cyclopropyl)amino)-2-(6-azaspiro[2.5]octan-6-yl)nicotinamide] was tested. Which IC50 did it give?
Answer: 58 nM

Question: For `CC(C)(C)NS(=O)(=O)c1cccc(NC(=O)c2ccc(NC3(CO)CC3)nc2N2CCC3(CC2)CC3)c1` [Example 105-11, N-(3-(N-(tert-butyl)sulfamoyl)phenyl)-6-((1-(hydroxymethyl)cyclopropyl)amino)-2-(6-azaspiro[2.5]octan-6-yl)nicotinamide], which IC50 is on record?
Answer: 94 nM

Question: With `CC1(NS(=O)(=O)c2cccc(NC(=O)c3ccc(NC4(CO)CC4)nc3N3CCC4(CC3)CC4)c2)CCC1` [Example 105-12, 6-((1-(hydroxymethyl)cyclopropyl)amino)-N-(3-(N-(1-methylcyclobutyl)sulfamoyl)phenyl)-2-(6-azaspiro[2.5]octan-6-yl)nicotinamide] as the compound, how does the IC50 read?
Answer: 105 nM

Question: `CC(C)(CO)Nc1ccc(C(=O)Nc2cccc(S(=O)(=O)NC3(C)CCC3)c2)c(N2CCC3(CC2)CC3)n1` [Example 105-13, 6-((1-hydroxy-2-methylpropan-2-yl)amino)-N-(3-(N-(1-methylcyclobutyl)sulfamoyl)phenyl)-2-(6-azaspiro[2.5]octan-6-yl)nicotinamide] was tested. Which IC50 did it give?
Answer: 56 nM

Question: `CC(C)(CO)Nc1ccc(C(=O)Nc2cccc(S(=O)(=O)NC3CC3)c2)c(N2CCC3(CC2)CC3)n1` [Example 105-14, N-(3-(N-cyclopropylsulfamoyl)phenyl)-6-((1-hydroxy-2-methylpropan-2-yl)amino)-2-(6-azaspiro[2.5]octan-6-yl)nicotinamide] was tested. Which IC50 did it give?
Answer: 33 nM

Question: `O=C(Nc1cccc(S(=O)(=O)NC2CC2)c1)c1ccc(NC2(CO)CC2)nc1N1CCC2(CC1)CC2` [Example 105-15, N-(3-(N-cyclopropylsulfamoyl)phenyl)-6-((1-(hydroxymethyl)cyclopropyl)amino)-2-(6-azaspiro[2.5]octan-6-yl)nicotinamide] was tested. Which IC50 did it give?
Answer: 800 nM

Question: Which IC50 does the source give for `Cc1ccc(NC(=O)c2ccc(NC(C)(C)CO)nc2N2CCC3(CC2)CC3)cc1S(=O)(=O)NC(C)(C)C` [Example 105-16, N-(3-(N-(tert-butyl)sulfamoyl)-4-methylphenyl)-6-((1-hydroxy-2-methylpropan-2-yl)amino)-2-(6-azaspiro[2.5]octan-6-yl)nicotinamide] here?
Answer: 121 nM

Question: For `CC(C)(C)NS(=O)(=O)c1cc(NC(=O)c2ccc(NC(C)(C)CO)nc2N2CCC3(CC2)CC3)ccc1F` [Example 105-17, N-(3-(N-(tert-butyl)sulfamoyl)-4-fluorophenyl)-6-((1-hydroxy-2-methylpropan-2-yl)amino)-2-(6-azaspiro[2.5]octan-6-yl)nicotinamide], which IC50 is on record?
Answer: 116 nM
